{"source": "patent US12331051B2", "about": "(priority 2021, dated 2025)", "key": {"[1]": {"target": "T1, Serotonin 7 receptor (5-HT7R) (Homo sapiens, UniProt P34969)", "T1 construct": "expressed in transfected cells; host or cells: HEK-293", "T1 sequence (P34969 whole entry)": "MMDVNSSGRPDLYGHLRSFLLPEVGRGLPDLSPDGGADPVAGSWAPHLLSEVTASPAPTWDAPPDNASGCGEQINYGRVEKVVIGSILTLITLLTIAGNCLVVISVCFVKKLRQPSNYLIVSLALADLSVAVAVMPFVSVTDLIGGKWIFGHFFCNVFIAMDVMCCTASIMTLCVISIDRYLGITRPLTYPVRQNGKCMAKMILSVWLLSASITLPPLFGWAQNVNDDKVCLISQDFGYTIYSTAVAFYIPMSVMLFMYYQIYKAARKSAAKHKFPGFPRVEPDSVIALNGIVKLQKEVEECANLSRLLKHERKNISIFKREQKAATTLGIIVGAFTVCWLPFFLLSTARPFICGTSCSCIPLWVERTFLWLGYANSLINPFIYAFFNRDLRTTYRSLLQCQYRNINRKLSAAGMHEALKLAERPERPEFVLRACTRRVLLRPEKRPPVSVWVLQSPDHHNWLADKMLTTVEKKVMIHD", "experiment": "Radioligand binding, cell membrane homogenates", "protocol": "(§1) Neuro-receptor binding and functional effects of the “E559 polymorph” was examined by analyzing binding affinity [Ki (nM)], functional agonist activity [EC50 (nM)], and functional antagonist activity [IC50 (nM)] against a panel of key receptors in neurophysiological disorders. Binding and functional assays were performed at “E559 polymorph” concentrations of 0.0003, 0.003, 0.01, 0.03, 0.1, 0.3, 1, and 10 μM. In binding assays, cell membrane homogenates, expressing each receptor target, were incubated with the corresponding radio-ligand in absence or presence of several concentration of the “E559 polymorph” compound. The measurement of binding affinity of the “E559 polymorph” is represented in TABLE XIII by Ki (nM) which was calculated as percent inhibition of the binding of a radioactively labeled reference ligand at each receptor. In functional assays the HEK-293 cells expressing each receptor target were suspended in buffer and distribute in microplates and incubated for 30 minutes at room temperature or 37° C. in the presence of buffer alone (basal control), the reference agonist or antagonist, or the “E559 polymorph. Following incubation, the cells were lysed and the appropriate fluorescent probe (Ca2+ flux, cAMP, or IP1) were added for 60 minutes to measure the fluorescence transfer at the appropriate wavelength using a microplate reader. The cellular agonist effect (EC50) was calculated as a percent of control response to a known reference agonist and the cellular antagonist effect (IC50) was calculated as a percent inhibition of control reference agonist response for each receptor."}, "[2]": {"target": "T2, Alpha 1A adrenergic receptor (Homo sapiens, UniProt P35348)", "T2 construct": "expressed in transfected cells; host or cells: HEK-293", "T2 sequence (P35348 1-466)": "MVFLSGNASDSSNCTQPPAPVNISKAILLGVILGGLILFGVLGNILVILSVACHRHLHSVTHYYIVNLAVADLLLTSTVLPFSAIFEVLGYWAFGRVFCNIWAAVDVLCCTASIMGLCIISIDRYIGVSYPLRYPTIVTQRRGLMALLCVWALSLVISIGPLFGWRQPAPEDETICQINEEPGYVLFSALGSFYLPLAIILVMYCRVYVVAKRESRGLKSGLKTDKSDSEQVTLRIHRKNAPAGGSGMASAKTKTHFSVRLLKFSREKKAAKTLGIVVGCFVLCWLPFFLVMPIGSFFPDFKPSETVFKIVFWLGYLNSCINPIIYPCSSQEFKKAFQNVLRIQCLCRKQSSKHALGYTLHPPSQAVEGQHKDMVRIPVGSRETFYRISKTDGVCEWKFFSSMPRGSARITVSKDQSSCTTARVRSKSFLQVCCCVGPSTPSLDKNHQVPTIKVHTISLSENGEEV", "experiment": "Functional assay in HEK-293 cells (Ca2+ flux)", "type": "cell-based", "protocol": "as §1"}, "[3]": {"target": "T3, Alpha 2A adrenergic receptor (Homo sapiens, UniProt P08913)", "T3 construct": "expressed in transfected cells; host or cells: HEK-293", "T3 sequence (P08913 1-465)": "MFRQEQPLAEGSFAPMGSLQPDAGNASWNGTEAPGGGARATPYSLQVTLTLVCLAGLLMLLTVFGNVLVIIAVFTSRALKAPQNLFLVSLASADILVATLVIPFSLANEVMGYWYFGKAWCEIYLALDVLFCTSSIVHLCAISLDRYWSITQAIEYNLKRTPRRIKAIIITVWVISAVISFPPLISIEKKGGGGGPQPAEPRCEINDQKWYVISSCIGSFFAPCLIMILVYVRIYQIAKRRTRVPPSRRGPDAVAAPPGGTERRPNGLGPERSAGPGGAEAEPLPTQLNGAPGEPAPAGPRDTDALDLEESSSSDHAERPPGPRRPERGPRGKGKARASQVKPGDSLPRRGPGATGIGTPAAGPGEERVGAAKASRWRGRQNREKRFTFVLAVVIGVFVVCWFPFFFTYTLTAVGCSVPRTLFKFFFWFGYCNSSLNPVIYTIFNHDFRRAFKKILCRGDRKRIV", "experiment": "Functional assay in HEK-293 cells (Ca2+ flux)", "type": "cell-based", "protocol": "as §1"}, "[4]": {"target": "T4, Serotonin 1A receptor (5-HT1AR) (Homo sapiens, UniProt P08908)", "T4 construct": "expressed in transfected cells; host or cells: HEK-293", "T4 sequence (P08908 1-422)": "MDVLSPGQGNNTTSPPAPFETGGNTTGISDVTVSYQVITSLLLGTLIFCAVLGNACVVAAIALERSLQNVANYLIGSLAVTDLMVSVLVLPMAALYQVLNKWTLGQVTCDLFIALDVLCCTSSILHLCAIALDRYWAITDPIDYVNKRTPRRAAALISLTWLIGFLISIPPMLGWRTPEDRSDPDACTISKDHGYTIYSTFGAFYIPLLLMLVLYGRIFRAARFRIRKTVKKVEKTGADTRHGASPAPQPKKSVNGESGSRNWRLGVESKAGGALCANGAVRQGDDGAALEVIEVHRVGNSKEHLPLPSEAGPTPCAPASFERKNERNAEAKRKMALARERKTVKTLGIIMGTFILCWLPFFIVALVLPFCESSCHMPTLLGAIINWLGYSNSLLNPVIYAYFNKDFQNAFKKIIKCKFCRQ", "experiment": "Functional assay in HEK-293 cells (Ca2+ flux)", "type": "cell-based", "protocol": "as §1"}, "[5]": {"test_system": "5-HT1 receptor subtypes: 5-HT1A, 1B, 1D, 1E, and 1F", "type": "cell-based, human", "conditions": "FIG. 15, FIG. 16A/B; listed as E559 polymorph"}, "stress naive mice": {"test_system": "stress naive mice", "experiment": "Forced swim test (FST), stress naive mice", "type": "in vivo, mouse", "protocol": "In brief, stress naive mice were treated (IP injection) with either saline (control) or single dose of the “E559 polymorph” at 0.3, 1, or 3 mg/kg dose levels and were evaluated 24 hours (OFT) and […] after treatment. The OFT was performed described in Example 13. The FST was performed as previously described in (Aguilar-Valles et al., Nature, 2021, 590, p315-319). Briefly FST was performed 24-hour post treatment by placing the mice (one by one) in a 4-liter wide-mouthed flask of 35° C. water. Mice activities were recorded for 6 minutes and assessed for total time the animal remains immobile, a sign of depressive-like behavior. FIG. 25A depicts the study design where female/male mice (n=10/group/sex) were treated by IP injection with the “E559 polymorph” or vehicle (saline) followed by open field and force swim test 24 hours post treatment. FIGS. 25B and 25E represent the total distance travelled in the open field test 24 hours after vehicle or the “E559 polymorph” in female and male mice, respectively. FIGS. 25C and 25F represent the time in the center of the open field by female and male mice, respectively. FIGS. 25D and 25G represent the immobility time during the last 4 minutes of the forced swim test in female and male mice, respectively. Horizontal lines represent the mean±standard error of the mean (S.E.M.) and asterisks indicate statistical significances."}}, "note": "pEC50, pIC50, pKi: −log10 of the molar value. Entries after “also recorded” stand apart in the source; their conditions may differ.", "data": [{"smiles": "CCN(CC)C(=O)[C@@H]1C=C2c3cccc4[nH]c(Br)c(c34)C[C@H]2N(C)C1", "note": "[E559, (5R, 8R)-2-Bromo-9,10-didehydro-N,N-diethyl-6-methylergoline-8-carboxamide hemi-D-tartrate]", "values": [{"measurement": "pKi", "setting": "[1]", "value": 8.42}, {"measurement": "pEC50", "setting": "[2]", "value": 7.29}, {"measurement": "pIC50", "setting": "[2]", "value": "< 5.00"}, {"measurement": "pEC50", "setting": "[3]", "value": "< 5.00"}, {"measurement": "pIC50", "setting": "[3]", "value": 6.59}, {"measurement": "pEC50", "setting": "[4]", "value": 5.52}, {"measurement": "pIC50", "setting": "[4]", "value": "< 5.00"}, {"measurement": "functional activity at 5-HT1 receptor subtypes", "setting": "[5]", "value": "moderate to potent agonist across all the 5-HT1 receptor subtypes; also recorded: exhibits the greatest potency (agonism) at 5-HT1F and 5-HT1D receptors"}, {"measurement": "decrease in immobility", "setting": "stress naive mice; female mice, IP 1 mg/kg", "value": "35.18 ± 10.03", "unit": "s"}, {"measurement": "decrease in immobility", "setting": "stress naive mice; male mice, IP 1 mg/kg", "value": "27.27 ± 8.226", "unit": "s"}, {"measurement": "decrease in immobility", "setting": "stress naive mice; male mice, IP 3 mg/kg", "value": "31.36 ± 8.226", "unit": "s"}]}]}
